Tests used:
HT1080 cells = experiment: EMS sensitivity of HT1080 cells (colony formation); format: cell-based; settings: Homo sapiens, HT-1080; 400 μg/ml EMS, 18 hr exposure
Method: HT1080 cells were seeded into 6-well plates (100-300 cells/well). After overnight incubation to allow cell attachment, The cells were exposed with EMS for 18 hours, washed three times, and then incubated with EMS-free medium for a further 14 days. The range of EMS concentration tested was 100 to 1000 μg of EMS/ml of culture medium. Colonies formed (50 cells) were stained with crystal violet and counted. The concentration of EMS used for the random mutagenesis experiments was determined based on the number of colonies obtained in the EMS-treated test versus EMS concentrations (Sega, 1984; Fanin et al., 1993).

Normal Bone Marrow cells = experiment: CFU-GM assay, Normal Bone Marrow (retroviral vector study); format: cell-based, murine; settings: 10 days
Source text: (§1) The following tables 15-17 summarize additional proof that these mutants confer resistance to chemotherapeutic agents by increasing the number of drug resistant CFU-GM colonies formed by murine bone marrow cells infected with retroviral vectors containing these mutant TS cDNAs.

[1] = tested on: murine bone marrow cells infected with Wt TS vector; experiment: CFU-GM assay, marrow infected with Wt TS retroviral vector; format: cell-based; settings: 10 days
[2] = tested on: murine bone marrow cells infected with G52S mut-TS vector; experiment: CFU-GM assay, marrow infected with G52S mut-TS retroviral vector; format: cell-based; settings: 10 days
Source text: as §1

[3] = in vivo; cited from earlier work
[4] = cited from earlier work
[5] = tested on: human colon tumor cell line with Tyr33 to His33 TS; settings: cited from earlier work

CCOS(C)(=O)=O [EMS, Ethylmethanesulfonate]
inhibition at 400 µg/mL (HT1080 cells): 80%

O=c1[nH]cc(F)c(=O)[nH]1 [5-FU, 5-fluorouracil]
CFU-C (Normal Bone Marrow cells; 10^−5 M 5-FU): 0
CFU-C (Normal Bone Marrow cells; 10^−6 M 5-FU): 16
CFU-C, % in parentheses (Normal Bone Marrow cells; 10^−6 M 5-FU): 10%
HPPCFU-C (Normal Bone Marrow cells; 10^−6 M 5-FU): 0
CFU-C ([1]; 10^−5 M 5-FU): 0
CFU-C ([1]; 10^−6 M 5-FU): 91
CFU-C, % in parentheses ([1]; 10^−6 M 5-FU): 54%
HPPCFU-C ([1]; 10^−6 M 5-FU): 6
HPPCFU-C, % in parentheses ([1]; 10^−6 M 5-FU): 14%
CFU-C ([2]; 10^−5 M 5-FU): 10
CFU-C, % in parentheses ([2]; 10^−5 M 5-FU): 6%
CFU-C ([2]; 10^−6 M 5-FU): 117
CFU-C, % in parentheses ([2]; 10^−6 M 5-FU): 72%
HPPCFU-C ([2]; 10^−6 M 5-FU): 21
HPPCFU-C, % in parentheses ([2]; 10^−6 M 5-FU): 40%

C#CCN(Cc1ccc2nc(N)[nH]c(=O)c2c1)c1ccc(C(=O)N[C@@H](CCC(=O)O)C(=O)O)cc1 [CB3717, N^10-propargyl-5,8-dideazafolic acid]
toxicity in Phase I trials [3]: severe renal and hepatic toxicity
aqueous solubility [4]: poor

O=c1[nH]c(=O)n([C@H]2C[C@H](O)[C@@H](COP(=O)(O)O)O2)cc1F [FdUMP, 5-fluoro-2-deoxyuridylate]
resistance conferred by Tyr33 to His33 substitution [5]: 3- to 4 fold
